Assay results published in paper PMC13128454, “Mutant p53 protein accumulation is selectively targetable by proximity-inducing drugs” (Nature Chemical Biology, 2025).
pEC50, pIC50, pKd: −log10 of the molar value. Where “and” joins values, the source holds several entries; their conditions need not be identical. Equal values may be shown once. Read-outs that look alike come from different tables or passages of the source.

Assays:
[1] = tested on: Calu-1 cells stably expressing Halo–p53-R273H (FL)–mCherry versus parental Calu-1 cells; assay: flow-cytometry growth competition; format: cell-based; settings: sheet S2E
Protocol: (§1) Cells with and without a fluorescent marker (for example, Halo–p53–mCherry) were mixed and the resulting solution was plated in six-well plates or 10-cm dishes at low density; compound was added at varying concentrations. After reaching confluence, cells were passaged and retreated with compound if needed. Otherwise, cells were trypsinized, washed and resuspended in complete growth medium in 96-well plates or tubes for flow cytometry. Untreated cell mixtures were used to establish gates separating the fluorophore^+/− populations. Analysis was conducted on a CytoFLEX LX flow cytometer.

[2] = tested on: Halo–p53-R273H (FL)–mCherry 293T cells versus parental 293T cells; assay: flow-cytometry growth competition; format: cell-based
Protocol: as §1

[3] = tested on: Halo–p53-Y220C ΔTAD–mCherry 293T cells versus parental 293T cells; assay: flow-cytometry growth competition; format: cell-based; settings: for mCherry_percent: 8 days, untreated 39.76; for activity / difference in cell survival in competition: 8-day competition; for normalized_mCherry_percentage: Y220C, day 8, normalized to DMSO; for Viability competition, AVERAGE: average of 3 replicates; for pIC50 / Emax: viability competition (sheet 5B); for Emax: lowest average of sheet 5A; for pEC50: growth competition analyzed on day 10, n = 3, read-out: Competition EC50
Protocol: as §1

[4] = target: T1, p53-Y220C–PLK1 ternary complex (Homo sapiens, UniProt P04637+P53350, M133L/N239Y/N268D/V203A/Y220C); assay: NanoBiT ternary complex assay in cotransfected 293T cells; format: cell-based
T1 construct: NLS–LgBiT–p53-Y220C (DBD) and mEGFP–PLK1–SmBiT; expressed in transfected cells; host or cells: 293T cells, transient cotransfection
Description: After 1 day, the cells were passaged into 384-well plates and treated with varying concentrations of compound.

WEE1 = tested on: WEE1; design: method as in PMID 19887545; settings: cell-free; read-out: IC50 for cell-free WEE1 inhibition; cited from earlier work
[5] = tested on: cancer cell lines across DepMap; design: method as in DepMap; settings: antiproliferative; PRISM OncRef; ref DepMap; read-out: median IC50 across DepMap; cited from earlier work
MFE319 cells = assay: CellTiter-Glo cell viability; format: cell-based; design: p5301_AUC_to_10uM / AUC_rezatapopt: scale not given here; settings: MFE319
Protocol: (§2) Cells were plated in 384-well plates (typically 1,500 cells per well) with varying concentrations of compounds, with a total volume of 50 μl per well. CTG reagent was added (25 μl) to the solutions, mixed and read out using an EnVision 2105 multimode plate reader.

DU145 cells = assay: CellTiter-Glo cell viability; format: cell-based; design: AUC_rezatapopt: unit not given beside the values
Protocol: as §2

HepG2 cells = assay: CellTiter-Glo cell viability; format: cell-based; design: AUC_rezatapopt: unit not given beside the values
Protocol: as §2

Huh7 cells = assay: CellTiter-Glo cell viability; format: cell-based; design: AUC_rezatapopt: unit not given beside the values
Protocol: as §2

LNCaP cells = assay: CellTiter-Glo cell viability; format: cell-based; design: AUC_rezatapopt: unit not given beside the values; settings: LNCaP
Protocol: as §2

MCF7 cells = assay: CellTiter-Glo cell viability; format: cell-based; design: AUC_rezatapopt: unit not given beside the values
Protocol: as §2

MFE296 cells = assay: CellTiter-Glo cell viability; format: cell-based; design: AUC_rezatapopt: unit not given beside the values
Protocol: as §2

NUGC-3 cells = assay: CellTiter-Glo cell viability; format: cell-based; design: AUC_rezatapopt: unit not given beside the values; settings: NUGC3
Protocol: as §2

p53-Y220C = settings: cited from earlier work
[6] = 24 h, n = 4, read-out: NanoBiT EC50

CC[C@@H]1C(=O)N(C)c2cnc(Nc3ccc(C(=O)NCCOCCOCCC(=O)NCCOCCOCCCCCCCl)cc3OC)nc2N1C1CCCC1 [HLDA-131]
mCherry_percent ([1]; 1 nM): 83.77% | mCherry_percent ([1]; 10 nM): 55.02% | mCherry_percent ([1]; 100 nM): 4.8% | mCherry_percent ([1]; 1 uM): 3.52%

C=CCn1c(=O)c2cnc(Nc3ccc(N4CCN(C(=O)CCOCCOCCC(=O)NCCOCCOCCCCCCCl)CC4)cc3)nc2n1-c1cccc(C(C)(C)O)n1 [Halo-PEG2-adavosertib]
pEC50 ([2]; Homo sapiens, HEK-293T, Halo–p53-R273H (FL)–mCherry 293T cells as printed, Extended Data Fig. 2f): 7.39 | selective inhibition of proliferation in competition assay ([2]; doses between 100 nM and 1 μM, cells as printed): selectively inhibited the proliferation | mCherry_percent ([3]; 100 nM): 10.55% | mCherry_percent ([3]; 1 uM): 4.24% | mCherry_percent ([3]; 10 uM): 26.57%

C=CC(=O)n1c2ccccc2c2cc(C(=O)NCc3cn(CCOCCOCCOCCOCCNC(=O)c4ccc(Nc5ncc6c(n5)N(C5CCCC5)[C@H](CC)C(=O)N6C)c(OC)c4)nn3)ccc21 [KG5-PEG4-BI2536]
activity / difference in cell survival in competition [3]: did not observe any difference in cell survival | normalized_mCherry_percentage ([3]; 1 nM): 98.99% | normalized_mCherry_percentage ([3]; 10 nM): 99.96% | normalized_mCherry_percentage ([3]; 100 nM): 100.2% | normalized_mCherry_percentage ([3]; 1 uM): 99.83%

CC[C@@H]1C(=O)N(C)c2cnc(Nc3ccc(C(=O)NCCOCCOCCOCCOCCC(=O)N4CCC(Nc5cccc6c5cc(C#CCNc5ccc(S(C)(=O)=O)cc5OC)n6CC(F)(F)F)CC4)cc3OC)nc2N1C1CCCC1 [PEG4 (p53-01)]
Viability competition, Replicate 1-3 ([3]; Concentration (nM) 10): 0.6959 and 0.6663 and 0.6621 | Viability competition, AVERAGE ([3]; Concentration (nM) 10): 0.6748 | Viability competition, Replicate 1-3 ([3]; Concentration (nM) 100): 0.7132 and 0.7004 and 0.6708 | Viability competition, AVERAGE ([3]; Concentration (nM) 100): 0.6948 | Viability competition, Replicate 1-3 ([3]; Concentration (nM) 500): 0.6679 and 0.6445 and 0.6361 | Viability competition, AVERAGE ([3]; Concentration (nM) 500): 0.6495 | Viability competition, Replicate 1-3 ([3]; Concentration (nM) 1000): 0.309 and 0.295 and 0.2813 | Viability competition, AVERAGE ([3]; Concentration (nM) 1000): 0.2951 | Viability competition, Replicate 1-3 ([3]; Concentration (nM) 2000): 0.1194 and 0.1119 and 0.1123 | Viability competition, AVERAGE ([3]; Concentration (nM) 2000): 0.1145 | Viability competition, Replicate 1-3 ([3]; Concentration (nM) 5000): 0.1698 and 0.1509 and 0.1508 | Viability competition, AVERAGE ([3]; Concentration (nM) 5000): 0.1572 | pIC50 [3]: 6.07 | Emax [3]: 0.1145

CC[C@@H]1C(=O)N(C)c2cnc(Nc3ccc(C(=O)NCCC(=O)N4CCC(Nc5cccc6c5cc(C#CCNc5ccc(S(C)(=O)=O)cc5OC)n6CC(F)(F)F)CC4)cc3OC)nc2N1C1CCCC1 [PMV6-C3-BI2536]
Viability competition, AVERAGE ([3]; Concentration (nM) 10): 0.6993 | Viability competition, Replicate 1-3 ([3]; Concentration (nM) 10, listed as C3): 0.706 and 0.7024 and 0.6895 | Viability competition, AVERAGE ([3]; Concentration (nM) 100): 0.1737 | Viability competition, Replicate 1-3 ([3]; Concentration (nM) 100, listed as C3): 0.1753 and 0.1712 and 0.1746 | Viability competition, AVERAGE ([3]; Concentration (nM) 500): 0.1322 | Viability competition, Replicate 1-3 ([3]; Concentration (nM) 500, listed as C3): 0.1474 and 0.1221 and 0.127 | Viability competition, AVERAGE ([3]; Concentration (nM) 1000): 0.1085 | Viability competition, Replicate 1-3 ([3]; Concentration (nM) 1000, listed as C3): 0.1425 and 0.0972 and 0.0859 | Viability competition, AVERAGE ([3]; Concentration (nM) 2000): 0.0794 | Viability competition, Replicate 1-3 ([3]; Concentration (nM) 2000, listed as C3): 0.0894 and 0.0623 and 0.0865 | Viability competition, AVERAGE ([3]; Concentration (nM) 5000): 0.1321 | Viability competition, Replicate 1-3 ([3]; Concentration (nM) 5000, listed as C3): 0.1277 and 0.1154 and 0.1531 | potency versus p53-01 in the competition assay ([3]; day 10): over 1.5 orders of magnitude | pEC50 [3]: 7.60 | pIC50 [3]: 7.60 | Emax [3]: 0.0794 | pEC50 [4, 6]: 6.39 | NanoBiT mean_norm ([4]; Concentration 19.5312): 1.06 | NanoBiT mean_norm ([4]; Concentration 39.0625): 1.117 | NanoBiT mean_norm ([4]; Concentration 78.125): 1.1621 | NanoBiT mean_norm ([4]; Concentration 156.25): 1.171 | NanoBiT mean_norm ([4]; Concentration 312.5): 1.264 | NanoBiT mean_norm ([4]; Concentration 625): 1.76 | NanoBiT mean_norm ([4]; Concentration 1250): 1.765 | NanoBiT mean_norm ([4]; Concentration 2500): 1.801 | NanoBiT mean_norm ([4]; Concentration 5000): 1.856 | NanoBiT mean_norm ([4]; Concentration 10000): 1.853 | Max_effect ([4]; sheet 5C): 1.856 | pEC50 ([4]; sheet 5C, read-out: EC50): 6.39

C=CCn1c(=O)c2cnc(Nc3ccc(N4CCN(C)CC4)cc3)nc2n1-c1cccc(C(C)(C)O)n1 [adavosertib]
pIC50 (WEE1): 8.28 | pIC50 [5]: 6.46

CNC(=O)c1ccc(NCC#Cc2cc3c(N[C@@H]4CCN(C)C[C@@H]4F)cccc3n2CC(F)(F)F)c(OC)c1 [rezatapopt]
AUC_rezatapopt (MFE319 cells): 0.8525 | AUC_rezatapopt (DU145 cells): 1 | AUC_rezatapopt (HepG2 cells): 0.9433 | AUC_rezatapopt (Huh7 cells): 0.6525 | AUC_rezatapopt (LNCaP cells): 0.9713 | AUC_rezatapopt (MCF7 cells): 0.9331 | AUC_rezatapopt (MFE296 cells): 0.5683 | AUC_rezatapopt (NUGC-3 cells): 0.5908 | pKd (p53-Y220C): ~8.60

O=C(/C=C\n1cnc(-c2cc(C(F)(F)F)cc(C(F)(F)F)c2)n1)NNc1cnccn1 [selinexor]
activity / difference in cell survival in competition [3]: did not observe any activity | normalized_mCherry_percentage ([3]; 1 nM): 98.56% | normalized_mCherry_percentage ([3]; 10 nM): 98.63% | normalized_mCherry_percentage ([3]; 100 nM): 103.2% | normalized_mCherry_percentage ([3]; 1 uM): 99.86%

AP1867-C8-BI2536
activity / difference in cell survival in competition [3]: did not observe any activity | normalized_mCherry_percentage ([3]; 1 nM): 97.6% | normalized_mCherry_percentage ([3]; 10 nM): 98.26% | normalized_mCherry_percentage ([3]; 100 nM): 98.72% | normalized_mCherry_percentage ([3]; 1 uM): 93.37%

PEG6
Viability competition, Replicate 1-3 ([3]; Concentration (nM) 10): 0.5239 and 0.6471 and 0.659 | Viability competition, AVERAGE ([3]; Concentration (nM) 10): 0.61 | Viability competition, Replicate 1-3 ([3]; Concentration (nM) 100): 0.5384 and 0.6799 and 0.6767 | Viability competition, AVERAGE ([3]; Concentration (nM) 100): 0.6317 | Viability competition, Replicate 1-3 ([3]; Concentration (nM) 500): 0.4819 and 0.6302 and 0.6328 | Viability competition, AVERAGE ([3]; Concentration (nM) 500): 0.5816 | Viability competition, Replicate 1-3 ([3]; Concentration (nM) 1000): 0.2653 and 0.295 and 0.3011 | Viability competition, AVERAGE ([3]; Concentration (nM) 1000): 0.2871 | Viability competition, Replicate 1-3 ([3]; Concentration (nM) 2000): 0.064 and 0.0676 and 0.0785 | Viability competition, AVERAGE ([3]; Concentration (nM) 2000): 0.07003 | Viability competition, Replicate 1-3 ([3]; Concentration (nM) 5000): 0.1113 and 0.1194 and 0.102 | Viability competition, AVERAGE ([3]; Concentration (nM) 5000): 0.1109 | pEC50 [3]: 6.05 | pIC50 [3]: 6.05 | Emax [3]: 0.07003 | pEC50 [4, 6]: 5.43 | NanoBiT mean_norm ([4]; Concentration 19.5312): 1.005 | NanoBiT mean_norm ([4]; Concentration 39.0625): 0.9853 | NanoBiT mean_norm ([4]; Concentration 78.125): 1.029 | NanoBiT mean_norm ([4]; Concentration 156.25): 1.026 | NanoBiT mean_norm ([4]; Concentration 312.5): 1.029 | NanoBiT mean_norm ([4]; Concentration 625): 1.011 | NanoBiT mean_norm ([4]; Concentration 1250): 1.186 | NanoBiT mean_norm ([4]; Concentration 2500): 1.25 | NanoBiT mean_norm ([4]; Concentration 5000): 1.542 | NanoBiT mean_norm ([4]; Concentration 10000): 1.6853 | Max_effect ([4]; sheet 5C): 1.6853 | pEC50 ([4]; sheet 5C, read-out: EC50): 5.43
